Experiments:
[1] = biological target: Poly (ADP-Ribose) Polymerase (PADPRP); conditions: cited from earlier work; for IC50: PADPRP Inhibitors, Table 1
[2] = tested on: human fibroblast cells (W138 cells); assay: Extension of lifespan and proliferative capacity of human fibroblast cells in culture (cumulative population doublings); format: cell-based
Text: At the time of subdivision, the media was aspirated, and the cells were rinsed with phosphate buffered saline (PBS) and then trypsinized. […] This process was repeated every ~7 days until the cells appeared to stop dividing.

human fibroblasts = conditions: Rattan and Clark, 1994; cited from earlier work

SMILES	IC50 [1]	also measured
NC(=O)c1cccc(O)c1 [3-Hydroxybenzamide]	9.1 µM	–
COc1ccccc1C(N)=O [2-Methoxybenzamide]	20 µM	–
O=c1[nH]c(=O)n([C@@H]2O[C@H](CO)[C@@H](O)[C@H]2O)cc1I [5-Iodouridine]	43 µM	–
CC(=O)Nc1ccc(O)c(C(N)=O)c1 [5-Acetamidosalicylamide]	45 µM	–
O=c1[nH][nH]c(=O)c2ccccc12 [2,3-Dihydro-1,4-phthalazinedione]	30 µM	–
O=c1[nH]c2ccccc2c2ccccc12 [2H-Benz[c]isoquinolin-1-one]	0.3 µM	–
NC(=O)c1cccc(C(N)=O)c1 [m-Phthalamide]	50 µM	–
Nc1cccc2c(=O)[nH][nH]c(=O)c12 [3-Aminophthalhydrazide]	23 µM	–
CCCCC/C=C\C/C=C\CCCCCCCC(=O)O [Linoleic acid]	48 µM	–
NC(=O)c1ccccc1 [Benzamide]	22 µM	–
CC(=O)Nc1cccc(C(N)=O)c1 [3-Acetamidobenzamide]	12 µM	–
O=c1[nH]c(S)nc2ccccc12 [2-Mercapto-4(3H)-quinazolinone]	44 µM	–
Cc1cc(=O)c2ccccc2o1 [2-Methyl-1,4-benzopyrone]	45 µM	–
O=c1[nH][nH]c(=O)c2c([N+](=O)[O-])cccc12 [3-Nitrophthalhydrazide]	72 µM	–
CCCCC/C=C\C/C=C\C/C=C\C/C=C\CCCC(=O)O [Arachidonic acid]	44 µM	–
NC(=O)c1ccccc1O [2-Hydroxybenzamide]	82 µM	–
O=c1[nH]cc(I)c(=O)[nH]1 [5-Iodouracil]	71 µM	–
Cc1cccc(C(N)=O)c1 [3-Methylbenzamide]	19 µM	–
CCCCCCCC/C=C\CCCCCCCC(=O)O [Oleic acid]	82 µM	–
NC(=O)c1cccc(N)c1 [3-Aminobenzamide]	–	lifespan of treated cells versus control cells ([2]; 10 μM 3-AB, FIG. 1): no effect; lifespan of treated cells versus control cells ([2]; 100 μM 3-AB, FIG. 1): longer lifespan than control cells; lifespan and proliferative capacity of treated cells ([2]; 1 mM 3-AB, FIG. 1): dramatic increase in lifespan and proliferative capacity; maximum achievable cumulative population doublings ([2]; 1 mM 3-AB, W138 cells, FIG. 1): significant increase; days in culture at which cells were still dividing ([2]; 1 mM 3-AB, control cells stopped dividing after about 40 days): > 60 days
O=c1[nH]ncc2ccccc12 [1(2H)-Phthalazinone]	12 µM	–
NC(=O)c1cccc(F)c1 [3-Fluorobenzamide]	20 µM	–
NC(=O)c1cccnc1 [Nicotinamide]	210 µM	–
Oc1ccnc2ccccc12 [4-Hydroxyquinoline]	80 µM	–
O=c1[nH]c2ccc([N+](=O)[O-])cc2c2ccccc12 [2-Nitro-6(5H)-phenanthridinone]	0.35 µM	–
Oc1cccc2c(O)nccc12 [1,5-Dihydroxyisoquinoline]	–	proliferative lifespan (maximum achievable cumulative population doublings) ([2]; 100 μM (DMSO concentration 0.1%), W138 cells, FIG. 2): extension of their proliferative lifespan; proliferative capacity of treated cells ([2]; same procedure, FIG. 2, concentration not given): increased proliferative capacity
c1coc(CNc2ncnc3[nH]cnc23)c1 [kinetin]	–	PADPRP inhibition (in words) ([1]; Althaus and Richter, 1987): weak inhibitor; cell culture lifespan in terms of maximum proliferative capacity in vitro (human fibroblasts): not accompanied by an increase in cell culture lifespan; onset of aging characteristics (human fibroblasts): delay the onset of aging characteristics
Cc1cc(O)c2ccccc2n1 [4-Hydroxy-2-methylquinoline]	74 µM	–
